Data as given in US12263182B2, “Method of introducing an mRNA molecule into a cell” (PCI Biotech AS, priority 2018, dated 2025).

Experiments:
TC-1 tumours = test: Intratumoural luciferase mRNA delivery with PCI (red light 652 nm), luciferase enzymatic assay on tumour homogenates; type: in vivo, mice; conditions: Example 2
Description: An experiment was performed to study in vivo naked mRNA delivery to TC-1 tumours (model for HPV-induced tumours) in mice.
In these experiments the TC-1 tumour model for HPV-induced cancer was employed. mRNA delivery was assessed by performing a luciferase enzymatic assay on homogenates from tumours harvested the day after illumination. Red light laser light illumination with a wavelength of 652 nm was used. The experiment was performed as follows: • Luciferase mRNA (L-7202 CleanCap™ FLuc mRNA (5moU)) from TriLink, 3 μg per injection) was mixed with TPCS2a and injected into the tumours in an injection volume of 20 μl. • 60 min after mRNA/TPCS2a injection the tumours were illuminated with different doses of red laser light (at 652 nm) for 12.5-500 seconds. • The day after illumination, all tumours were removed and frozen for later enzymatic assay for luciferase (Luciferase Assay System, Promega, Cat #E1500). • The protein content in the samples was measured with the RC DC Protein Assay kit (BioRad) assay, and the relative amounts of active luciferase in each sample was calculated as Relative Luminescence Units (RLU: Arbitrary units) per mg of protein.

MC-38 tumours = test: Intratumoural luciferase mRNA delivery with PCI (blue light), luciferase enzymatic assay on tumour homogenates; type: in vivo, mice; conditions: Example 3, 6 min blue light
Description: An experiment was performed to study in vivo naked mRNA delivery to colon adenocarcinoma tumours (MC-38 tumours) in mice.
The experiment was performed with Luciferase-encoding modified mRNA, and the effect was analysed by an enzymatic luciferase assay on tumour extracts, with tumours harvested 20 hours after illumination. Each animal had two tumours (A and B) that were injected and analysed separately.
TriLink modified luciferase mRNA (T14-GU03A), 3 μg was used per injection.
Female mice of the strain C57BL/6 (Charles River) were be used. Animal identification and conditions of housing, acclimatisation, environment, diet and water was in accordance with the current Standard Operating Procedures at the animal facilities at Oslo University Hospital—The Radium Hospital.
The animals were inoculated with 500 000 MC-38 cells per tumour, 2 tumours per animal. The size of the tumours on mRNA injection was 60-150 mm^3. Animals were randomized by tumour volume, animals with tumour ulcers were excluded. mRNA was mixed with TPCS2a and the mixture (25 μl) was injected into the tumours at time 0. The pure (naked) mRNA was injected at the same time point.
The injections were performed with gas anesthesia (Sevoflurane). The aim of the injection was to deposit a solution in the centre of the outer third of the tumour, avoiding the central core of the tumour. Insulin syringes were used to deliver the 25 μl of treatment.
The tumours in the PCI groups were illuminated (blue light from LumiSource) 60 min after mRNA/TPCS2a injection according to Table 5. The day after mRNA administration (i.e. around 20 hours after illumination) animals were killed and all tumours were removed and frozen for later homogenization and enzymatic assay for luciferase (Luciferase Assay System, Promega, Cat #E1500). After homogenization the amount of protein in the tumour extract was determined using the RC-DC Protein Assay (Bio-Rad Hercules, California, USA) and the luciferase enzymatic activity per mg tumour was calculated.

skin of mice = test: Intradermal naked luciferase mRNA delivery with PCI, bio-luminescence imaging (IVIS) of injection sites; type: in vivo; conditions: for effect on mRNA delivery (fold increase in luminescence vs mRNA only): Example 1C, 2 μg unmodified mRNA L-6307, 0.003 μg TPCS2a
Description: Firefly luciferase mRNA (1921 nucleotides in length; L-6107—with modified bases 5-methylcytidine (5meC) and pseudo-uridine (ψ); L-6307—unmodified mRNA; L-7202—with modified base 5-methoxyuridine (5moU), and with the TriLink CleanCap™ modification as the capping structure, purchased from TriLink Biotechnologies, San Diego, USA) and TPCS2a (Amphinex®, PCI Biotech AS, Norway) were mixed in a volume of 20 μl PBS and the mixture was injected into the skin of mice at time 0. Different doses were used in different experiments, and in control samples no TPCS2a was used. Injections were performed in 4 sites (A-D) per mouse (see FIG. 1 and diagram and table below), and the injection sites were illuminated in general 60 min after mRNA/TPCS2a injection. With this set-up the two sites in each animal not receiving TPCS2a act as controls internal to each animal. This is useful for being able to correct for possible differences between animals e.g. in the injection and distribution of luciferin prior to the bio-luminescence imaging.
Injection sites were illuminated with blue light (wavelength between 400 and 540 nm with a peak at around 435 nm) from the LumiSource illumination device.
4-6 or 20-24 hours after illumination luciferase activity at the injection sites was analysed by bio-luminescence imaging in the IVIS instrument (IVIS Spectrum, model 124375R from PerkinElmer). Pictures were taken 20 min after luciferin injection, and bio-luminescence in a defined region-of-interest (ROI) around each injection site was quantified. The procedure for IVIS imaging was as follows: i) The mice were given an intraperitoneal injection of 3 mg D-Luciferin (200 μl of 15 mg/ml stock).
ii) After approximately 10 min, the mice were anaesthetized by a subcutaneous injection of Zoletil (10-15 mg/kg xylasin, 5-10 mg/kg butorphanol and 15-20 mg/kg Zoletil (containing zolazepam and tiletamine)).
iii) 20 min after D-luciferin injection, mice were placed in the IVIS instrument and pictures were taken with automatic exposure of Luminescence (Andor camera IS0825R4582; iKon Living Image version: 4.5.2.18424. Binning factor: 8; Excitation filter: Block; Emission filter: Open; f Number: 1)
iv) The bio-luminescence in ROIs covering each injection site was measured to quantify luciferase expression. The detailed set-up of a typical experiment (Example 1) can be found in Table 1.
Animals were injected by mRNA and TPCS2a as described under Methods and treated as described in Table 1 with the sites shown in FIG. 8.
3 μg mRNA and different amounts of TPCS2a (ranging from 0.0003 μg to 10 μg) were mixed and injected into the skin of mice as described under Methods. 60 min after the injections the mice were illuminated for 6 (in general) or 3 min (in one case) with blue light from the LumiSource illumination device. The animals were injected with luciferin and imaged in the IVIS instrument as described under Methods. The luminescence in defined regions of interest round the injection sites was assessed in the IVIS instrument. For each animal the luminescence at the sites receiving mRNA+TPCS2a was compared to the luminescence at the sites receiving mRNA only, and the fold increase (FI) in luminescence at the TPCS2a injected sites in each animal was calculated by the formula FI=luminescencemRNA+TPCS2a/luminescencemRNA only. […]
Lipofectamine is a very efficient transfection agent commonly used for delivery of mRNA and other nucleic acids; and it has also been used for mRNA delivery in vivo (Zangi et al., 2013, supra). However several type of toxic reactions have been observed with in vivo use of lipofectamine, limiting the possibilities for clinical use of this transfection agent. […]

With “tetraphenyl chlorin disulfonate [TPCS2a]” the “optimum illumination dose for PCI-enhanced mRNA delivery” value (TC-1 tumours; 3 μg mRNA + 0.1 μg TPCS2a, red light 652 nm) was “around 2 J/cm^2”, the “effect on mRNA delivery versus mRNA alone (RLU/mg protein)” value (TC-1 tumours; 3 μg mRNA + 0.1 μg TPCS2a, without illuminating the tumours) was “did not seem to enhance mRNA delivery significantly” and the “effect on mRNA delivery and translation (RLU/mg protein)” value (TC-1 tumours; 3 μg mRNA L-7202 + 0.1 μg TPCS2a intratumoural, red light 0.1 to 4 J/cm^2, tumours harvested day after illumination) was “strong enhancement of mRNA delivery and translation”. The “effect on luciferase mRNA delivery (luciferase enzymatic activity in tumour homogenates, single tumours)” value (MC-38 tumours; 3 μg mRNA + 0.001-0.01 μg TPCS2a intratumoural, harvested 20 h after illumination) was “substantially enhanced luciferase mRNA delivery”, the “PCI-induced improvement in mRNA delivery compared to mRNA without PCI (group means)” value (MC-38 tumours; 0.003/6 min group: 3 μg mRNA + 0.003 μg TPCS2a) was “about 3 times” and the “PCI-induced improvement in mRNA delivery compared to mRNA without PCI (group means)” value (MC-38 tumours; 0.01/6 min group: 3 μg mRNA + 0.01 μg TPCS2a) was “about 10 times”. The “enhancement of mRNA delivery by PCI, mean of all animals versus mRNA only” value (skin of mice; Example 1A, 12 sites each, 2 μg mRNA + 0.003 μg TPCS2a intradermal, 6 min blue light) was “about 3 times”, the “mean bio-luminescence for the PCI treated sites versus the mRNA only sites” value (skin of mice; Example 1A, animal 6, 2 μg luciferase mRNA L-6107 + 0.003 μg TPCS2a intradermal, 6 min blue light, imaged 4 h after illumination) was “more than 5 times” and the “effect on mRNA delivery, 6 versus 3 min illumination” value (skin of mice; Example 1B, 3 μg mRNA, 0.003 μg TPCS2a, 6 and 3 min blue light) was “comparable enhancement of mRNA delivery”. The “effect on mRNA delivery (luciferase expression, fold increase vs mRNA only)” value (skin of mice; Example 1B, 3 μg mRNA, TPCS2a dose of 0.0003 μg, blue light) was “improved mRNA delivery”, the “effect on mRNA delivery (luciferase expression, fold increase vs mRNA only)” value (skin of mice; Example 1B, 3 μg mRNA, TPCS2a doses above 0.3 μg (PCI10, PCI3, PCI1), 6 min blue light) was “strongly detrimental effect on mRNA delivery” and the “effect on mRNA delivery (luciferase expression, fold increase vs mRNA only)” value (skin of mice; Example 1B, 3 μg mRNA, TPCS2a doses of 0.01 μg and below, 6 min blue light) was “significant enhancement of mRNA delivery”. The “effect on mRNA delivery (luciferase expression, fold increase vs mRNA only)” value (skin of mice; Example 1B, 3 μg mRNA, TPCS2a doses of 0.3 to 0.03 μg, 6 min blue light) was “did not alter luciferase expression significantly”, the “effect on mRNA delivery (fold increase in luminescence vs mRNA only)” value (skin of mice; 0.5 min blue light) was “enhanced mRNA delivery” and the “effect on mRNA delivery (fold increase in luminescence vs mRNA only)” value (skin of mice; 4 min blue light) was “enhanced mRNA delivery”. The “improvement of mRNA translation over what was achieved with lipofectamine” value (skin of mice; Example 1D, 2 μg mRNA L-7202 intradermal, 0.003 μg TPCS2a, 6 min blue light, imaged 4 h after illumination, comparator 6 μl lipofectamine) was about 4 times.
